# Measured values taken from patent EP0042354A2, “Imidazobenzothiadiazepines, process for their preparation and pharmaceutical compositions containing them” (CIBA-GEIGY AG, priority 1980, dated 1981).
# Key:
# Assay type in all cases: in vivo
# Totenkopf-Aeffchen = assay: Extrapyramidal side effects and neurological symptoms observed in haloperidol-sensitised squirrel monkeys
# Description: Die bei den klassischen Neuroleptica bekannten extrapyramidalen Nebenwirkungen (ENW) lösen in Totenkopf-Aeffchen, welche vorher einer wiederholten antipsychotischen Behandlung unterworfen waren, charakteristische motorische Syndrome aus. Diese Bewegungsstörungen bestehen aus dystonischen Kõrperhaltungen und dyskinetischen Bewegungen, welche besser den bei Menschen auftretenden ENW entsprechen, als dies die Katalepsie oder Zittern tut. So können potentielle extrapyramidale Nebenwirkungen, aber gegebenenfalls auch andere neurologische Symptome, z.B. Ptosis, durch Beobachtung von ausgewachsenen Totenkopf-Aeffchen (von einem Gewicht von 700-1200 g) beurteilt werden. Die Tiere werden einmal wöchentlich oder einmal in zwei Wochen mit Haloperidol (1,25 mg/kg) behandelt. Nach einer derartigen Behandlung von ungefähr 2-4 Monaten treten 1-6 Stunden nach der Verabreichung von Haloperidol offensichtliche dystonische Körperhaltungen und dyskinetische Bewegungen auf. Sonst können in anderen Zeitpunkten keine abnormalen Bewegungen der Affen festgestellt werden. Nach dem Auftreten von, durch Haloperidol hervorgerufenen Dyskinesien, wird die oben geschilderte Behandlungsweise abgebrochen. Die Tiere erhalten nachher lediglich alle 4-8 Wochen 1,25 mg/kg Haloperidol und sie werden als Kontrolltiere bei der Untersuchung von Verbindungen dieser Erfindung eingesetzt.
# Die Affen werden in Intervallen von 2, 4 und 6 Stunden nach der Behandlung beurteilt. Die Versuche werden in verschlossenen Zellen, welche mit ferngesteuerten Video-Beobachtungsapparaten und mit einem einheitlichen Summton-Generator ausgerüstet sind, durchgeführt. Die Beurteilungen der Tiere werden durch zwei voneinander unabhängige Beobachter vorgenommen, welche keine Kenntnis von den verabreichten Verbindungen und vom Ziel des Versuchs haben. Während der neurologischen Untersuchungen werden die Affen von einer dritten Person behandelt. Zuerst werden die Tiere durch das Video-System beobachtet. Dann betreten die Beobachter die Versuchstelle und notieren die Reaktionen der Affen als "motorisch" (das Tier geht umher in der Zelle), "visuell" (eine offenbare Reaktion, jedoch kein Umhergehen) und "keine" (keine Reaktion). Es werden auch Aktivität, Köperhaltung, Zittern, vermehrter Speichelfluss und andere neurologische Symptome berücksichtigt. Besondere Beachtung wird dem Vorhandensein oder Abwesenheit von "bizarren", vorher genannten, distonischen Körperhaltungen und dyskinetischen Bewegungen gewidmet. Die die Tiere behandelnde Person nimmt dann den Affen aus der Zelle heraus. Dabei werden die Reaktionen des Affen auf die Annäherung der mit einem Handschuh geschützten Hand, auf die erste Berührung beim Anfassen undauf die Hemmnisse nach der Gefangennahme, separat aufgeschrieben. Die Vokalisation während der Gefangennahme wird auch beurtielt. Die Person, welche das Tier behandelt, wertet dann den Körpertonus und die Pupillengrösse aus und stellt fest, ob Ptosis vorhanden ist. Hat die vorhergehende Untersuchung nahegelegt, dass Katalepsie aufgetreten ist, so wird dieses Symptom ausgewertet. Der Affe wird zuerst, Kopf nach unten, auf den Boden, dann zum Zelleneingang und schliesslich in die Beobachtungszelle gestellt. Bleibt der Affe in allen diesen Stellungen mindestens 5 Sekunden im wesentlichen unbeweglich, so wird das Vorhandensein der Katalepsie bejaht. […]
# [1] = test system: Totenkopf-Aeffchen (squirrel monkeys); assay: Sidman avoidance test (conditioned avoidance, lever press to postpone foot shock), monkeys; details: Saimiri, in Primates, compound given 30, 90 and 210 min before the test, total dose, read-out: Gesamtdosis, welche die Vermeidungs-Reaktionen vermindert
# Description: (§1) Die Verbindungen der Erfindung zeigen wertvolle pharmakologische Eigenschaften, in erster Linie neuroleptische Wirkungen. Diese können in Tierversuchen, vorzugsweise an Säugern, z.B. Mäusen, Ratten oder Affen, als Testobjekte, nachgewiesen werden. Die genannten Verbindungen können ihnen enteral oder parenteral, vorzugsweise oral oder subkutan, intravenös oder intraperitoneal, z.B. durch Steckkapseln oder in Form von Stärke enthaltenden Suspensionen bzw. wässerigen Lösungen, verabreicht werden. Die verwendete Dosis kann in einem Bereich von ungefähr zwischen 0,01 und 100 mg/kg/Tag, vorzugsweise ungefähr 0,05 und 10 mg/kg/Tag, insbesonder zwischen 0,1 und 5 mg/kg/Tag, liegen.
# (§2) Die genannten neuroleptischen Eigenschaften können an ausgewachsenen Ratten oder Totenkopf-Aeffchen (squirrel monkeys) nachgewiesen werden. Die Tiere sind zur Betätigung eines Hebels trainiert, wodurch sie einem auf den Fuss verabreichten elektrischen Schock ausweichen können. Jeder Hebeldruck verschiebt den Schock um 30 Sekunden. Vergisst das Tier den Hebel innerhalb des genannten Zeitintervalls einmal zu drücken, so werden alle 15 Sekunden kurze (0,5 sec.) elektrische Schocks abgegeben, bis das Tier den Hebel wieder betätigt. […]
# Ratten = assay: Sidman avoidance test (conditioned avoidance, lever press to postpone foot shock), rats; details: Rattus norvegicus, compound given 30, 90 and 210 min before the test, total dose, read-out: Gesamtdosis, welche die Vermeidungs-Reaktionen vermindert
# Description: as §1, §2
compound,measurement,setting,value
"CN1CCN(C2=Nc3ccccc3Sc3nccn32)CC1 [Beispiel 1, 5-(4-Methylpiperazino)-imidazo[2,1-b][1,3,5]benzothia-diazepin]",vermehrter Speichelfluss,Totenkopf-Aeffchen; in vivo,nicht festellbar
same,minimal effective dose,[1],≤ 10 mg/kg
same,minimal effective dose,Ratten,≤ 10 mg/kg
CN1CCN(C2=Nc3cc(Cl)ccc3Nc3ccccc32)CC1 [Clozapin],dyskinetische Bewegungen / Dyskinesien,"Totenkopf-Aeffchen; 10 mg/kg, monkeys rated 2, 4 and 6 h after treatment",nicht aufgetreten
same,vermehrter Speichelfluss,"Totenkopf-Aeffchen; monkeys rated 2, 4 and 6 h after treatment, doses as in the dyskinesia test",bei jedem untersuchten Affen
O=C(CCCN1CCC(O)(c2ccc(Cl)cc2)CC1)c1ccc(F)cc1 [Haloperidol],dyskinetische Bewegungen / Dyskinesien,"Totenkopf-Aeffchen; 0,625 mg/kg (low dose), monkeys rated 2, 4 and 6 h after treatment",an fünf Affen feststellbar
same,dyskinetische Bewegungen / Dyskinesien,"Totenkopf-Aeffchen; 1,25 mg/kg, monkeys rated 2, 4 and 6 h after treatment",schwere Dyskinesie
